Measurements from US20080182781A1, “Process for the Preparation of Peptides” (priority 2004, published 2008).
Read-outs that look alike come from different tables or passages of the source. Where a SMILES comes first, the peptide text is derived from it. Bridges are numbered along the chain shown (N, C = ends). [ ]: non-standard residue; d: D form. hArg = N=C(N)NCCCC[C@H](N)C(=O)O; Mpa = O=C(O)CCS

Tested on: ADP induced platelet aggregation
Type: cell-based
Details: human PRP
Protocol: The bioactivity of peptide of formula (1) is checked using platelet aggregation inhibition assay using 4× Laser Aggregometer (EMA). Freshly venous Blood from consented human donors are drawn and collected in citrated buffer. The platelet rich plasma (PRP) and platelet poor plasma are separated by centrifugation. Platelet count in PRP is adjusted to 2-3×10^8 platelets/ml. After adjusting the baseline aggregation with PPP, the PRP was treated with […] ADP and checked the percent total aggregation. The PRP is then first incubated with varying concentrations of reference standard and synthesized peptide of formula (1). ADP is then added to check the inhibition of aggregation. The reproducibility of bioactivity of synthesized peptide of formula 1 is checked several times and compared with reference standards.

## N=C(N)NCCCC[C@@H]1NC(=O)CCSSC[C@@H](C(N)=O)NC(=O)[C@@H]2CCCN2C(=O)[C@H](Cc2c[nH]c3ccccc23)NC(=O)[C@H](CC(=O)O)NC(=O)CNC1=O [SP of formula 1] ([Mpa][hArg]GDWPC-NH2; disulfide 1-7)
Donor 1, 140 nM
  % Inhibition of ADP induced aggregation: 44.6%
Donor 1, 280 nM
  % Inhibition of ADP induced aggregation: 61.40%
Donor 2, 70 nM
  % Inhibition of ADP induced aggregation: 46.66%
Donor 2, 140 nM
  % Inhibition of ADP induced aggregation: 51.16%
Donor 2, 280 nM
  % Inhibition of ADP induced aggregation: 67.74%
Donor 3, 70 nM
  % Inhibition of ADP induced aggregation: 57.42%
Donor 3, 140 nM
  % Inhibition of ADP induced aggregation: 60.28%
Donor 4, 140 nM
  % Inhibition of ADP induced aggregation: 20.52%
Donor 4, 280 nM
  % Inhibition of ADP induced aggregation: 42.73%
Donor 5, 70 nM
  % Inhibition of ADP induced aggregation: 52.63%
Donor 5, 140 nM
  % Inhibition of ADP induced aggregation: 87.21%
Donor 6, 140 nM
  % Inhibition of ADP induced aggregation: 82.92%
12 experiments, read-out: IC50 dose, inhibition of ADP induced platelet aggregation
  IC50: < 140 nM
Seen in most of the samples
  inhibition of ADP induced platelet aggregation: more than 50%
